Measurements from US20250332173A1, “COMPOUNDS AND METHODS FOR MODULATING NUCLEIC ACID SPLICING” (REMIX THERAPEUTICS INC., priority 2021, published 2025).
Where two headings read alike, the source gives them in different places.

Experiments:
[1] = system: K562 (human chronic myelogenous leukemia) cells; test: Cell Titer Glo 2.0 cell viability assay; assay type: cell-based; settings: Homo sapiens, K562, 72 h, K562 cells, 72 hours, Cell Titer Glo 2.0; read-out: K562 GI50
HTT = test: HiBiT protein abundance assay, HTT HiBiT K562 cell line; assay type: cell-based, human; settings: 24 hours, top dose 10 μM
Procedure, shortened: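 Tagged-protein abundance measured by split-NanoBiT luminescence after lysis, following 24 h compound exposure (37° C; 10 μM top, 3-fold, 10 points; DMSO ≤0.25%) of HiBiT knock-in K562 cells. Percent response vs DMSO and unmodified-cell controls; 4-parameter logistic interpolation at 50% gave IC50.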

Target C = test: RT-qPCR splicing assay panel, Target C canonical junction (CJ) mRNA; assay type: cell-based, human; settings: Homo sapiens
Procedure, shortened: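 Canonical-junction transcript levels in compound-treated A673 or K562 cells (24 h, up to 10 uM final) were determined from lysates by RT-qPCR with housekeeping-gene normalization.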

[2] = canonical junction qPCR panel, Table 5, read-out: Target C (decrease in CJ mRNA levels, IC50)
[3] = HiBiT K562 cell line, read-out: Effect on protein abundance, HTT (IC50 category)

GI50 [1] [µM] | IC50 (HTT; [3]) [µM] | IC50 (Target C; Table 5 panel, canonical junction qPCR, compound concentration having 50% response in CJ decrease, read-out: Target C IC50 (decrease in CJ mRNA levels)) [µM] | Structure (SMILES) | IC50 (HTT; HiBiT lytic detection, modified K562 cells, read-out: Effect on protein abundance, HTT (IC50)) [µM] | IC50 (Target C; [2]) [µM]
0.1 to 1 | 0.1 to 1 | – | Cc1cn2cc(-c3ncc4c(=O)n([C@H]5CCNC6(CC6)C5)ccc4n3)cc(F)c2n1 [Compound 1458, 6-[(7S)-4-azaspiro[2.5]octan-7-yl]-2-(8-fluoro-2-methyl-imidazo[1,2-a]pyridin-6-yl)pyrido[4,3-d]pyrimidin-5-one] | – | 0.1 to 1
1 to 10 | > 10 | > 10 | Cc1cc(-c2ccc3c(=O)n(C4CCN(C)CC4)cnc3c2F)cc2cn(C)nc12 [Compound 235] | – | –

Structure (SMILES) | GI50 [1] [µM] | IC50 (HTT; [3]) [µM] | IC50 (Target C; Table 5 panel, canonical junction qPCR, compound concentration having 50% response in CJ decrease, read-out: Target C IC50 (decrease in CJ mRNA levels)) [µM] | IC50 (HTT; HiBiT lytic detection, modified K562 cells, read-out: Effect on protein abundance, HTT (IC50)) [µM] | IC50 (Target C; [2]) [µM]
Cc1c(O)c(-c2ncc3c(=O)n([C@@H]4C[C@H]5COC[C@@H](C4)N5)ccc3n2)cc2cn(C)nc12 [Compound 1471] | 0.1 to 1 | – | – | 0.1 to 1 | 0.1 to 1
